Test results taken from ChEMBL document CHEMBL1909046, “DrugMatrix in vitro pharmacology data”.

How the values were obtained:
[1] = target: T1, Polyunsaturated fatty acid lipoxygenase ALOX15 (Oryctolagus cuniculus, UniProt P12530); test: biochemical; assay type: tissue-based, Reticulocytes; settings: reticulocytes;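 also: inhibition of 15-lipoxygenase enzyme activity measured with linoleic acid as the substrate; in other assays of this panel Not Active means under 50% inhibition at 10 µM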
T1 sequence (P12530 whole entry): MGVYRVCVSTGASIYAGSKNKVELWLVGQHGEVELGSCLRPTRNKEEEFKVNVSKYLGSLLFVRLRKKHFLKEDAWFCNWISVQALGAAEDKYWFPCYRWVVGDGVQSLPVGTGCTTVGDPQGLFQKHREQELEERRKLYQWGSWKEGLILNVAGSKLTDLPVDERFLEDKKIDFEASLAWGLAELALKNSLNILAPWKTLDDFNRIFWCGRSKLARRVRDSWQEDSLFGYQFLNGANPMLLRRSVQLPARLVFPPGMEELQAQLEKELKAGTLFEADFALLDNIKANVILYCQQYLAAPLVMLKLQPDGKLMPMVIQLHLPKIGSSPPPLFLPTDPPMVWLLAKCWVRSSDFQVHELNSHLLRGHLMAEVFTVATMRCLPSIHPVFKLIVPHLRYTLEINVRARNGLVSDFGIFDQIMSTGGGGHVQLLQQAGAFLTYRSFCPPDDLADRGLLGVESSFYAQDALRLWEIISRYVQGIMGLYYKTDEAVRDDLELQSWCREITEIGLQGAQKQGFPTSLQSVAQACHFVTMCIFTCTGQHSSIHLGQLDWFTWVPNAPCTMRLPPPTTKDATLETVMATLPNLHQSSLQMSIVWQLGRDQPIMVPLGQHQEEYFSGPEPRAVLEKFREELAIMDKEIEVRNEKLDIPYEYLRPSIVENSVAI

Cannabinoid receptor 1 = Cannabinoid receptor 1 (Homo sapiens, UniProt P21554); assay type: cell membranes, Chem-1, Membrane; settings: chem-1; also: in other assays of this panel Not Active means under 50% inhibition at 10 µM
Cannabinoid receptor 1, sequence (P21554 whole entry): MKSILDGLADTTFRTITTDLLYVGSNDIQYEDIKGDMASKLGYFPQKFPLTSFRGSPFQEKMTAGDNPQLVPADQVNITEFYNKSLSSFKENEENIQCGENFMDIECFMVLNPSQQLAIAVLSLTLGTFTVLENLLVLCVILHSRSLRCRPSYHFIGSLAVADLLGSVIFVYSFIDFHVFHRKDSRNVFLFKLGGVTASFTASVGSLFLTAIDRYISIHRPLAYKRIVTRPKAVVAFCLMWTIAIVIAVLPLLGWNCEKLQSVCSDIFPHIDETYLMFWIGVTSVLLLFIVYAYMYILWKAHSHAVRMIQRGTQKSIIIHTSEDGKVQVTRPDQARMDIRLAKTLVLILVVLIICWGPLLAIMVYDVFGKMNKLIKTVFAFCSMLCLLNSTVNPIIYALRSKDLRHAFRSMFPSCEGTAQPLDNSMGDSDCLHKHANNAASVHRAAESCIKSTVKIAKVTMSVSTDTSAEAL

Substance-P receptor = Substance-P receptor (Homo sapiens, UniProt P25103); assay type: cell membranes, CHO, Membrane; settings: cho; also: in other assays of this panel Not Active means under 50% inhibition at 10 µM
Substance-P receptor, sequence (P25103 whole entry): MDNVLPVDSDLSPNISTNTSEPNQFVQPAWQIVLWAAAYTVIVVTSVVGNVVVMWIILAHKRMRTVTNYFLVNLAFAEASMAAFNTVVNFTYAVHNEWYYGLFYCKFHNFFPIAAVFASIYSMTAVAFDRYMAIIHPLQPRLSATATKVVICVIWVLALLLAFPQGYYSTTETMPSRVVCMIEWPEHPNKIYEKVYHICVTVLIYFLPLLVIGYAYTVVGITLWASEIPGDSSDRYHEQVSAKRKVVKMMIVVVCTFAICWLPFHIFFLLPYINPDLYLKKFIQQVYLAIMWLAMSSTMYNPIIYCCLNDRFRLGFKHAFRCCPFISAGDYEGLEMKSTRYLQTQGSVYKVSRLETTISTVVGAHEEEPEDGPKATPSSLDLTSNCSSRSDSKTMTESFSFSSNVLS

[2] = DRUGMATRIX: Serotonin (5-Hydroxytryptamine) 5-HT3 radioligand binding (ligand: [3H] GR-65630); assay type: cell membranes, Membrane; settings: hek293; Not Active = under 50% inhibition at 10 µM
[3] = target: Delta-type opioid receptor (Homo sapiens, UniProt P41143); assay type: cell membranes, HEK293, Membrane; settings: hek293; also: in other assays of this panel Not Active means under 50% inhibition at 10 µM
Delta-type opioid receptor, sequence (P41143 whole entry): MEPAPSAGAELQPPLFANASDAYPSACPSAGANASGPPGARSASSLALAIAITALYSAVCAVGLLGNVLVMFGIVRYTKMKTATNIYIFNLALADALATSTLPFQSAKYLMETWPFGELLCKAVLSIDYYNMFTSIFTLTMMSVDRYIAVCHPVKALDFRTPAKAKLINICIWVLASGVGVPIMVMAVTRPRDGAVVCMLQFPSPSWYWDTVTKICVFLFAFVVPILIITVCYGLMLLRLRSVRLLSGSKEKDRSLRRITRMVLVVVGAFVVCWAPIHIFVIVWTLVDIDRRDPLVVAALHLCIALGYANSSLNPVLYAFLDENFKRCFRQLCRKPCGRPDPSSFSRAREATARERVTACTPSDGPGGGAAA

[4] = DRUGMATRIX: Sodium/nucleoside co-transporter radioligand binding (ligand: nitrobenzylthioinosine); assay type: cell membranes, Cavia porcellus, Dunkin-Hartley, Cerebral cortex, Membrane; settings: Not Active = under 50% inhibition at 10 µM
D(4) dopamine receptor = target: T2, D(4) dopamine receptor (Homo sapiens, UniProt P21917); test: DRUGMATRIX: Dopamine D4.2 radioligand binding (ligand: [3H] Spiperone); assay type: cell membranes, CHO-K1, Membrane; settings: cho-k1; Not Active = under 50% inhibition at 10 µM
T2 sequence (P21917 whole entry): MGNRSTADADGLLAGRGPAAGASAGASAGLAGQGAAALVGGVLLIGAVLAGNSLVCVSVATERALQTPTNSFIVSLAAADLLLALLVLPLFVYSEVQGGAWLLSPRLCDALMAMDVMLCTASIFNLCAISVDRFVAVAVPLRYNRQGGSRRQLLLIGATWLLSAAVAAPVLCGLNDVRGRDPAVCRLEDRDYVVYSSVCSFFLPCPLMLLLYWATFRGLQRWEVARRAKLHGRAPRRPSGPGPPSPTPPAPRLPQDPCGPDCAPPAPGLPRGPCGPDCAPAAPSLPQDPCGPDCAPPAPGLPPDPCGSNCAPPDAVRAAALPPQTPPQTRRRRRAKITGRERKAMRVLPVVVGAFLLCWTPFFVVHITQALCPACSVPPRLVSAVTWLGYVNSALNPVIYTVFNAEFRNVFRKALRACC

[5] = DRUGMATRIX: Purinergic P2X radioligand binding (ligand: [3H] alpha, beta-Methylene-ATP); assay type: cell membranes, Oryctolagus cuniculus, New Zealand albino, Urinary bladder, Membrane; settings: Not Active = under 50% inhibition at 10 µM

C[N+](C)(C)C[C@H](O)CC(=O)[O-] [LEVOCARNITINE]
Not Active: IC50 [1] | IC50 (Cannabinoid receptor 1) | IC50 (Substance-P receptor) | IC50 [2] | Ki [2] | IC50 [3] | IC50 [4] | Ki [4] | IC50 (D(4) dopamine receptor) | IC50 [5] | Ki [5]

C[C@H]1COc2c(N3CCN(C)CC3)c(F)cc3c(=O)c(C(=O)O)cn1c23.C[C@H]1COc2c(N3CCN(C)CC3)c(F)cc3c(=O)c(C(=O)O)cn1c23.O [LEVOFLOXACIN]
Not Active: IC50 [1] | IC50 (Cannabinoid receptor 1) | IC50 (Substance-P receptor) | IC50 [2] | Ki [2] | IC50 [3] | IC50 [4] | Ki [4] | IC50 (D(4) dopamine receptor) | IC50 [5] | Ki [5]

CCn1cc(C(=O)O)c(=O)c2cc(F)c(N3CCNC(C)C3)c(F)c21 (stereo unspecified) [LOMEFLOXACIN]
Not Active: IC50 [1] | IC50 (Cannabinoid receptor 1) | IC50 (Substance-P receptor) | IC50 [2] | Ki [2] | IC50 [3] | IC50 [4] | Ki [4] | IC50 (D(4) dopamine receptor) | IC50 [5] | Ki [5]

CN1CCCC(CN2c3ccccc3Sc3ccccc32)C1 (stereo unspecified) [MEPAZINE]
Not Active: IC50 [1] | IC50 (Cannabinoid receptor 1) | IC50 (Substance-P receptor) | IC50 [2] | Ki [2] | IC50 [3] | IC50 [4] | Ki [4] | IC50 (D(4) dopamine receptor) | IC50 [5] | Ki [5]

Cc1cccc(C)c1NC(=O)C1CCCCN1C (stereo unspecified) [MEPIVACAINE]
Not Active: IC50 [1] | IC50 (Cannabinoid receptor 1) | IC50 (Substance-P receptor) | IC50 [2] | Ki [2] | IC50 [3] | IC50 [4] | Ki [4] | IC50 (D(4) dopamine receptor) | IC50 [5] | Ki [5]

CN(C)C(=N)NC(=N)N [METFORMIN]
Not Active: IC50 [1] | IC50 (Cannabinoid receptor 1) | IC50 (Substance-P receptor) | IC50 [2] | Ki [2] | IC50 [3] | IC50 [4] | Ki [4] | IC50 (D(4) dopamine receptor) | IC50 [5] | Ki [5]

CC(C)(C)NCC(O)COc1cccc2c1CC(O)C(O)C2 (stereo unspecified) [NADOLOL]
Not Active: IC50 [1] | IC50 (Cannabinoid receptor 1) | IC50 (Substance-P receptor) | IC50 [2] | Ki [2] | IC50 [3] | IC50 [4] | Ki [4] | IC50 (D(4) dopamine receptor) | IC50 [5] | Ki [5]

C[C@]12CC[C@H]3[C@@H](CCC4=CC(=O)CC[C@@H]43)[C@@H]1CC[C@@H]2O [NANDROLONE]
Not Active: IC50 [1] | IC50 (Cannabinoid receptor 1) | IC50 (Substance-P receptor) | IC50 [2] | Ki [2] | IC50 [3] | IC50 [4] | Ki [4] | IC50 (D(4) dopamine receptor) | IC50 [5] | Ki [5]

C[C@@H]1C/C=C/C=C/C=C/C=C/[C@H](O[C@@H]2O[C@H](C)[C@@H](O)[C@H](N)[C@@H]2O)C[C@@H]2O[C@](O)(C[C@@H](O)C[C@H]3O[C@@H]3/C=C/C(=O)O1)C[C@H](O)[C@H]2C(=O)O [NATAMYCIN]
Not Active: IC50 [1] | IC50 (Cannabinoid receptor 1) | IC50 (Substance-P receptor) | IC50 [2] | Ki [2] | IC50 [3] | IC50 [4] | Ki [4] | IC50 (D(4) dopamine receptor) | IC50 [5] | Ki [5]

CN(C)C(=O)Oc1cccc([N+](C)(C)C)c1.[Br-] [NEOSTIGMINE BROMIDE]
Not Active: IC50 [1] | IC50 (Cannabinoid receptor 1) | IC50 (Substance-P receptor) | IC50 [2] | Ki [2] | IC50 [3] | IC50 [4] | Ki [4] | IC50 (D(4) dopamine receptor) | IC50 [5] | Ki [5]

NC(=O)c1cccnc1 [NIACINAMIDE]
Not Active: IC50 [1] | IC50 (Cannabinoid receptor 1) | IC50 (Substance-P receptor) | IC50 [2] | Ki [2] | IC50 [3] | IC50 [4] | Ki [4] | IC50 (D(4) dopamine receptor) | IC50 [5] | Ki [5]

CS(=O)(=O)Nc1ccc([N+](=O)[O-])cc1Oc1ccccc1 [NIMESULIDE]
Not Active: IC50 [1] | IC50 (Cannabinoid receptor 1) | IC50 (Substance-P receptor) | IC50 [2] | Ki [2] | IC50 [3] | IC50 [4] | Ki [4] | IC50 (D(4) dopamine receptor) | IC50 [5] | Ki [5]

CN1C(=O)CN=C(c2ccccc2)c2cc([N+](=O)[O-])ccc21 [NIMETAZEPAM]
Not Active: IC50 [1] | IC50 (Cannabinoid receptor 1) | IC50 (Substance-P receptor) | IC50 [2] | Ki [2] | IC50 [3] | IC50 [4] | Ki [4] | IC50 (D(4) dopamine receptor) | IC50 [5] | Ki [5]

COc1ccc2c(c1OC)C(=O)O[C@@H]2[C@H]1c2c(cc3c(c2OC)OCO3)CCN1C [NOSCAPINE]
Not Active: IC50 [1] | IC50 (Cannabinoid receptor 1) | IC50 (Substance-P receptor) | IC50 [2] | Ki [2] | IC50 [3] | IC50 [4] | Ki [4] | IC50 (D(4) dopamine receptor) | IC50 [5] | Ki [5]

C[C@@H]1O[C@@H](O[C@H]2C[C@@H](O)[C@]3(CO)[C@H]4[C@H](O)C[C@]5(C)[C@@H](C6=CC(=O)OC6)CC[C@]5(O)[C@@H]4CC[C@]3(O)C2)[C@H](O)[C@H](O)[C@H]1O [OUABAIN]
Not Active: IC50 [1] | IC50 (Cannabinoid receptor 1) | IC50 (Substance-P receptor) | IC50 [2] | Ki [2] | IC50 [3] | IC50 [4] | Ki [4] | IC50 (D(4) dopamine receptor) | IC50 [5] | Ki [5]

NC(=O)N1c2ccccc2CC(=O)c2ccccc21 [OXCARBAZEPINE]
Not Active: IC50 [1] | IC50 (Cannabinoid receptor 1) | IC50 (Substance-P receptor) | IC50 [2] | Ki [2] | IC50 [3] | IC50 [4] | Ki [4] | IC50 (D(4) dopamine receptor) | IC50 [5] | Ki [5]

COc1ccnc(C[S+]([O-])c2nc3ccc(OC(F)F)cc3[nH]2)c1OC (stereo unspecified) [PANTOPRAZOLE]
Not Active: IC50 [1] | IC50 (Cannabinoid receptor 1) | IC50 (Substance-P receptor) | IC50 [2] | Ki [2] | IC50 [3] | IC50 [4] | Ki [4] | IC50 (D(4) dopamine receptor) | IC50 [5] | Ki [5]

N=C(N)c1ccc(OCCCCCOc2ccc(C(=N)N)cc2)cc1 [PENTAMIDINE]
Not Active: IC50 [1] | IC50 (Cannabinoid receptor 1) | IC50 (Substance-P receptor) | IC50 [2] | Ki [2] | IC50 [3] | IC50 [4] | Ki [4] | IC50 (D(4) dopamine receptor) | IC50 [5] | Ki [5]

NNCCc1ccccc1 [PHENELZINE]
Not Active: IC50 [1] | IC50 (Cannabinoid receptor 1) | IC50 (Substance-P receptor) | IC50 [2] | Ki [2] | IC50 [3] | IC50 [4] | Ki [4] | IC50 (D(4) dopamine receptor) | IC50 [5] | Ki [5]

CCc1ccc(CCOc2ccc(CC3SC(=O)NC3=O)cc2)nc1 (stereo unspecified) [PIOGLITAZONE]
Not Active: IC50 [1] | IC50 (Cannabinoid receptor 1) | IC50 (Substance-P receptor) | IC50 [2] | Ki [2] | IC50 [3] | IC50 [4] | Ki [4] | IC50 (D(4) dopamine receptor) | IC50 [5] | Ki [5]

CCCNC(C)C(=O)Nc1ccccc1C (stereo unspecified) [PRILOCAINE]
Not Active: IC50 [1] | IC50 (Cannabinoid receptor 1) | IC50 (Substance-P receptor) | IC50 [2] | Ki [2] | IC50 [3] | IC50 [4] | Ki [4] | IC50 (D(4) dopamine receptor) | IC50 [5] | Ki [5]
